Laboratory results from US20090227507A1, “Angiotensin (1-7) Dosage Forms and Uses Thereof” (UNIVERSITY OF SOUTHERN CALIFORNIA, priority 2008, published 2009).

Test system: CD8 cells in peripheral blood
Assay: Flow cytometry of peripheral blood, CD8 lymphocytes; USB003 SC once daily for 7 days in healthy men
Format: in vivo, human
Design: key to Subjects with shift, Absolute CD8, N-L (normal to low) / Subjects with shift, Absolute CD8, L-N (low to normal) / Subjects with shift, Absolute CD8, H-N (high to normal) / Subjects with shift, Absolute CD8, N-H (normal to high): — signifies subject with no shift from baseline
Details: for CD8, Absolute, Mean at Baseline: Baseline (Day 1)
Procedure: • Single-center, randomized, double-blind, placebo-controlled, 2 cohort dose-escalation trial of once daily dosing over a 7-day period (7 doses total): • Cohort 1: 2 subjects treated with placebo and 8 subjects treated with 200 μg/kg USB003 (A(1-7)) • Cohort 2: 2 subjects treated with placebo and 8 subjects treated with 300 μg/kg USB003 • For each cohort, there was a Screening Period, Treatment Phase, Follow-up Period, and Study Termination or Early Withdrawal Day. Subjects were confined to the study unit during the Treatment Phase. • Cohort 2 was treated approximately 1 week after completion of the Treatment Phase for Cohort 1 to allow time for the assessment of safety and tolerability in the first cohort.
Pharmacological Effect: The following evaluations (under efficacy and safety in the protocol) were performed: • Effects on the number of mature blood cells: • 1. CBC (with differential), platelet count, reticulocyte count. • Effects on early hematopoietic progenitor cells and mature lymphocyte subsets in the periphery: • 1. Flow cytometry to evaluate frequency of peripheral blood progenitor cells (eg, CD34^+) and lymphocyte subsets (eg, CD3, CD4, CD8) in peripheral blood. • 2. Collection of blood for later possible culture for progenitor cells (eg, colony forming units-granulocyte/macrophage [CFU-GM]) to evaluate potential effects on CD34^+ hematopoietic progenitor cells in peripheral blood. • 3.
The effect of USB003 on the number of mature blood cells was assessed by the complete blood count with differential, platelet and reticulocyte counts. The effects on early hematopoietic progenitor cells and mature lymphocyte subsets in the periphery were assessed by flow cytometry. In addition, blood was collected and processed to enable culture of progenitors at a later time.
Red blood cell (RBC) count, RBC indices, white blood cell count (WBC) with differential, reticulocyte count, platelet count, hemoglobin (Hb), hematocrit (Hct), plasma hemoglobin, peripheral flow cytometry, including CD34^+, flow cytometry for enumeration of CD3, CD4, and CD8 lymphocytes, and culture for progenitor cells in peripheral blood including colony-forming units-granulocyte/macrophage (CFU-GM).

Substance: Asp-Arg-Val-Tyr-Ile-His-Pro [USB003]
- CD8, Absolute, Mean at Baseline (200 μg/kg): 564.6 cells/μL
- Subjects with shift, Absolute CD8, H-N (high to normal) (200 μg/kg, Baseline to Day 8): —
- Subjects with shift, Absolute CD8, L-N (low to normal) (200 μg/kg, Baseline to Day 8): —
- Subjects with shift, Absolute CD8, N-H (normal to high) (200 μg/kg, Baseline to Day 8): 1
- Subjects with shift, Absolute CD8, N-L (normal to low) (200 μg/kg, Baseline to Day 8): —
- Subjects with shift, Absolute CD8, H-N (high to normal) (200 μg/kg, Baseline to Day 20): —
- Subjects with shift, Absolute CD8, L-N (low to normal) (200 μg/kg, Baseline to Day 20): —
- Subjects with shift, Absolute CD8, N-H (normal to high) (200 μg/kg, Baseline to Day 20): —
- Subjects with shift, Absolute CD8, N-L (normal to low) (200 μg/kg, Baseline to Day 20): —
- CD8, Absolute, Mean Change from Baseline (200 μg/kg, Day 3): −34.2 cells/μL
- CD8, Absolute, Mean Change from Baseline (200 μg/kg, Day 5): 31.9 cells/μL
- CD8, Absolute, Mean Change from Baseline (200 μg/kg, Day 7): 0.0 cells/μL
- CD8, Absolute, Mean Change from Baseline (200 μg/kg, Day 8): −3.3 cells/μL
- CD8, Absolute, Mean Change from Baseline (200 μg/kg, Day 17): −52.8 cells/μL
- CD8, Absolute, Mean Change from Baseline (200 μg/kg, Day 20): −31.7 cells/μL
- CD8, Absolute, Mean at Baseline (300 μg/kg): 452.1 cells/μL
- Subjects with shift, Absolute CD8, H-N (high to normal) (300 μg/kg, Baseline to Day 8): —
- Subjects with shift, Absolute CD8, L-N (low to normal) (300 μg/kg, Baseline to Day 8): —
- Subjects with shift, Absolute CD8, N-H (normal to high) (300 μg/kg, Baseline to Day 8): 1
- Subjects with shift, Absolute CD8, N-L (normal to low) (300 μg/kg, Baseline to Day 8): —
- Subjects with shift, Absolute CD8, H-N (high to normal) (300 μg/kg, Baseline to Day 20): —
- Subjects with shift, Absolute CD8, L-N (low to normal) (300 μg/kg, Baseline to Day 20): —
- Subjects with shift, Absolute CD8, N-H (normal to high) (300 μg/kg, Baseline to Day 20): —
- Subjects with shift, Absolute CD8, N-L (normal to low) (300 μg/kg, Baseline to Day 20): —
- CD8, Absolute, Mean Change from Baseline (300 μg/kg, Day 3): 59.5 cells/μL
- CD8, Absolute, Mean Change from Baseline (300 μg/kg, Day 5): 71.0 cells/μL
- CD8, Absolute, Mean Change from Baseline (300 μg/kg, Day 7): 93.6 cells/μL
- CD8, Absolute, Mean Change from Baseline (300 μg/kg, Day 8): 45.1 cells/μL
- CD8, Absolute, Mean Change from Baseline (300 μg/kg, Day 17): −47.3 cells/μL
- CD8, Absolute, Mean Change from Baseline (300 μg/kg, Day 20): 26.8 cells/μL
